Values quoted from earlier work as cited in patent US20040009962A1, “Combined estrogen blockade of the breast with exemestane and raloxifene” (priority 2000, published 2004).
Like-named read-outs stand apart in the source and are kept apart here.

Tests used:
[1] = tested on: DMBA- and NMN-induced mammary carcinogenesis; conditions: may be less when compared with tamoxifen
rats [2] = tested on: rats
healthy men = conditions: 200 mg/day orally
metastatic breast cancer [3] = conditions: 200 mg/day
[4] = tested on: healthy postmenopausal women
[5] = deep vein thrombosis, pulmonary embolism, retinal vein thrombosis
endometrium = conditions: baseline vs 8 weeks of treatment
whole body aromatization = conditions: 10 postmenopausal women with advanced breast cancer
[6] = tested on: 7, 12-dimethyl-benzanthracene (DMBA)-induced mammary tumors; conditions: rats
[7] = except at relatively high doses
rats [8] = tested on: rats; remark: listed apart in the source
[9] = Ames, V79, E. coli, DNA repair on rat hepatocytes, micronucleus, in vivo and in vitro chromosome aberration
[10] = tested on: plasma estrogen levels (E2, E1, E1S); conditions: suppression of E2, E1 and E1S, postmenopausal women
metastatic breast cancer [11] = tested on: metastatic breast cancer
metastatic breast cancer [12] = conditions: 25 mg/day
metastatic breast cancer [13] = conditions: 25 mg/day orally, 241 women
[14] = tested on: DMBA-induced rat mammary tumor; conditions: DMBA-induced rat mammary tumor model
metastatic breast cancer [15] = tested on: metastatic breast cancer; remark: listed apart in the source
[16] = tested on: early stage breast cancer
[17] = tested on: MCF-7 breast cancer cells; conditions: estrogen deficient state vs supplemented with estrogen
[18] = all doses, interim analysis, vs placebo

For `O=C(c1ccc(OCCN2CCCCC2)cc1)c1c(-c2ccc(O)cc2)sc2cc(O)ccc12` [raloxifene, Raloxifene], the anti-tumor activity [1] is listed as “anti-tumor activity”, the “agonist activity on the rat uterus” value (rat uterus; administered alone) is listed as “little agonist activity” and the “uterotropic action of estradiol” value (rat uterus; immature rat) is listed as “inhibits”. For the same molecule, the bone mineral density (ovariectomized rat) was “increases”, the serum cholesterol (ovariectomized rat) was “decreases” and the “DNA adducts or hepatocarcinogenesis” value (rats [2]) was “no reports”. The “response to exogenous estrogen (anti-estrogen effect)” value (healthy men) was “blunt”, the tolerability (metastatic breast cancer [3]; 14 patients) was “well tolerated” and the objective responses (metastatic breast cancer [3]; tamoxifen-refractory group) was “no objective responses”. The “bone mineral density in the hip, spine, femur and total body” value [4, 18] was “increase”, the “markers of bone turnover” value [4, 18] was “decrease” and the HDL cholesterol ([4]; in vivo) was “unchanged”. For the same molecule, the “serum total and LDL cholesterol” value ([4]; in vivo) was “significantly decreased”, the side effects ([4]; in vivo) was “increased hot flashes and leg cramps” and the tolerability ([4]; in vivo) was “well tolerated”. The endometrial thickness ([4]; transvaginal ultrasound, any treatment group) was “unaffected”, the “risk of venous thromboembolic events” value [5] was “increased risk” and the “change in the endometrium on uterine biopsy” value (endometrium) was “no change”. The “relative risk of endometrial cancer” value (postmenopausal women; p=0.232) was 0.38, the “risk reduction of breast cancer” value (postmenopausal women; raloxifene 60 or 120 mg/day vs controls) was 58% and the “relative risk of endometrial cancer” value (postmenopausal women; two cases diagnosed within one month of randomization excluded, p=0.045) was 0.13.
In the case of estrogen, the “change in the endometrium on uterine biopsy” value (endometrium) is given as “significant endometrial stimulation”.
In the case of `C=C1C[C@@H]2[C@H](CC[C@]3(C)C(=O)CC[C@@H]23)[C@@]2(C)C=CC(=O)C=C12` [exemestane, Exemestane], the “mean suppression of whole body aromatization” value (whole body aromatization) is given as 97.9%, the “whole body aromatization on treatment (mean)” value (whole body aromatization; pretreatment 2.059%) is given as 0.042% and the “efficacy against DMBA-induced mammary tumors” value [6] is given as “highly effective”. For the same molecule, the tolerability [7] was “good tolerability”, the embryotoxic dose (rats [8]) was no less than 50 mg/kg and the teratogenicity (rats [8]) was “not teratogenic”. The embryotoxic dose (rabbits) was no less than 270 mg/kg, the teratogenicity (rabbits) was “not teratogenic” and the “genotoxic potential, all tests except chromosome aberration in human lymphocytes” value [9] was “negative”. The “concentration from which the chromosome aberration test was positive” value (human lymphocytes) was no less than 12000 ng/mL, the “dose at which inhibition of plasma estrogen levels became apparent” value [10] was “about 1 mg” and the “overall success rate (CR+PR+SD>6 months)” value (metastatic breast cancer [11]; 25 mg) was 47%. The “overall response rate (CR+PR)” value (metastatic breast cancer [11]; 25 mg, 128 postmenopausal women, 95% CI 21-37) was 28%, the “overall response rate (CR+PR)” value (metastatic breast cancer [11]; 88 patients who had measurable disease) was 34% and the “median duration of response” value (metastatic breast cancer [11]; 95% CI 11-20 months) was 14 months. The overall response rate (metastatic breast cancer [11]; patients with visceral disease) was 33%, the “stable disease>6 months” value (metastatic breast cancer [11]; treated population) was 19% and the overall response rate (metastatic breast cancer [12]; 87 women, 95% CI 6-20) was 11%. For the same molecule, the “SD>6 months” value (metastatic breast cancer [12]; additional patients) was 17.2%, the “overall success rate (CR+PR+SD>6 months)” value (metastatic breast cancer [13]) was 25% and the “overall objective response rate” value (metastatic breast cancer [13]; third- and fourth-line) was 7%. For the same molecule, the “appearance of new tumors” value [14] was “reduced” and the objective response rate [14] was 44%.
In the case of `CC/C(=C(\c1ccccc1)c1ccc(OCCN(C)C)cc1)c1ccccc1` [tamoxifen, Tamoxifen], the response rates (metastatic breast cancer [15]; premenopausal women, metastatic breast cancer) is given as 20 to 45%, the objective response rates (metastatic breast cancer [15]; unselected postmenopausal women with metastatic disease) is given as 30 to 40% and the response rates (metastatic breast cancer [15]; women with ER-positive and PR-positive tumors) is given as 60-70%. The “annual rates of recurrence and mortality” value ([16]; adjuvant therapy, premenopausal and postmenopausal women) was “reduce”, the “reduction of the risk of contralateral breast cancer” value ([16]; five years of adjuvant tamoxifen vs no adjuvant therapy) was 47% and the tumor mitotic rate [17] was “marked reduction”. The “appearance of new tumors” value [14] was “reduced” and the objective response rate [14] was 29%.
